# Experimental data: US20220144752A1, “WATER-SOLUBLE NAPHTHOQUINONE DERIVATIVE COMPOSITION AND METHOD FOR PRODUCING SAME, WATER-SOLUBLE COMPOSITION FOR CONTROLLING HARMFUL ALGAE, METHOD FOR CONTROLLING LARGE-SCALE HARMFUL ALGAE, AND AUTOMATION SYSTEM FOR AI-MONITORING, REMOVING, AND PREVENTING LARGE-SCALE HARMFUL ALGAE” (priority 2019, published 2022)
# Counter-ions that a name gives are not always drawn.
# Assays:
# [1] = test system: microcystis; assay: Algal effect experiment (algal activity by cell counting); assay type: cell-based, microcystis aeruginosa; conditions: concentration of 1 μM or more
# Description: (§1) The harmful algae algal effect at various inoculation concentrations of the compounds according to an example of the present disclosure was measured. To this end, freshwater harmful algae as treated group include blue-green algae, cyanobacteria microcystis aeruginosa, dolichospermum circinale, aphanizomenon sp., and pseudoanabaena sp., diatoms, stephanodiscus hantzschii, and synedra sp., and green algae, scenedesmus sp., and seawater harmful algae includes trichodesmium sp., alexandrium tamarens, cochlodinium polykrikoides, prorocentrum minimum, and heterosigma akashiwo which are blue-green algae, and pseudo-nitzschia pungens fungens which is diatoms. […]
# (§2) Reviewing the details of the experiment, in the case of freshwater species, 5 mL of each culture line was prepared so that the cell density was 5.0×10^3-9.0×10^4 cells/mL, and in the case of seawater species, was prepared so that the cell density was 1.0×10^2-1.0×10^4 cells/mL. […] Counting of the number of cells was performed through an SR-chamber or a hemocytometer under an upright or inverted microscope, and by counting the number of cells after 24 hours, 48 hours, and 72 hours, the reduction ratio of cells compared to before treatment, that is, algal activity (%) was calculated using the following [Equation 1]. […]
# (§3) Based on the above [Formula 1], the algal activity of the compound was expressed as 60% or less, 60 to 80%, 80% or more. […]
# [2] = test system: dolichospermum; assay: as above; assay type: cell-based, dolichospermum circinale; conditions: concentration of 1 μM or more
# Description: as §1, §2, §3
# [3] = test system: aphanizomenon; assay: as above; assay type: cell-based, aphanizomenon sp.; conditions: concentration of 2 μM or more
# Description: as §1, §2, §3
# [4] = test system: cochlodinium polykrikoides; assay: as above; assay type: cell-based; conditions: concentration of 1 μM or more
# Description: (§4) The harmful algae algal effect at various inoculation concentrations of the compounds according to an example of the present disclosure was measured. To this end, freshwater harmful algae as treated group include blue-green algae, cyanobacteria microcystis aeruginosa, dolichospermum circinale, aphanizomenon sp., and pseudoanabaena sp., diatoms, stephanodiscus hantzschii, and synedra sp., and green algae, scenedesmus sp., and seawater harmful algae includes trichodesmium sp., alexandrium tamarens, cochlodinium polykrikoides, prorocentrum minimum, and heterosigma akashiwo which are blue-green algae, and pseudo-nitzschia pungens fungens which is diatoms. The culture conditions are shown in [Table 1] below.
# (§5) Reviewing the details of the experiment, in the case of freshwater species, 5 mL of each culture line was prepared so that the cell density was 5.0×10^3-9.0×10^4 cells/mL, and in the case of seawater species, was prepared so that the cell density was 1.0×10^2-1.0×10^4 cells/mL. After preparing each culture, the compounds specified as [Chemical Formula 1] prepared according to Examples were inoculated at various concentrations, and are treated so that the final concentrations were 1, 2, and 6 μM, respectively. Then, the compositions were cultured under the culture conditions of [Table 1], and cultured under continuous light conditions and observed for 72 hours. Counting of the number of cells was performed through an SR-chamber or a hemocytometer under an upright or inverted microscope, and by counting the number of cells after 24 hours, 48 hours, and 72 hours, the reduction ratio of cells compared to before treatment, that is, algal activity (%) was calculated using the following [Equation 1].
# (§6) Algal activity (%)=(1−Tt/Ct)×100 [Equation 1]
# (§7) In this case, in [Equation 1], T represents the density of cells after treating the compound, C represents the density of cells not treating the compound, and t represents the culture time.
# (§8) Based on the above [Formula 1], the algal activity of the compound was expressed as 60% or less, 60 to 80%, 80% or more. When the algal activity reached 80% within 48 hours at any compound concentration, it was determined that there was an effect at a concentration higher than that and the high concentration experiment was stopped.
# [5] = test system: diatoms; assay: as above; assay type: cell-based; conditions: 1, 2 and 6 μM, up to 72 hours
# Description: as §4, §5, §6, §7, §8
# [6] = test system: green algae; assay: as above; assay type: cell-based; conditions: 1, 2 and 6 μM, up to 72 hours
# Description: as §4, §5, §6, §7, §8
# [7] = test system: heterosigma akashiwo; assay: as above; assay type: cell-based; conditions: concentration of 2 μM or more
# Description: as §4, §5, §6, §7, §8
# [8] = test system: alexandrium tamarence; assay: as above; assay type: cell-based, alexandrium tamarens; conditions: concentration of 1 μM or more
# Description: as §1, §2, §3
# [9] = test system: akashiwo sanguinea; assay: as above; assay type: cell-based; conditions: concentration of 6 μM or more
# [10] = test system: Synedra; assay: as above; assay type: cell-based, synedra sp.; conditions: 1 μM, second day; cell growth observed again afterwards
# Description: as §1, §2, §3
# [11] = test system: Scenedesmus; assay: as above; assay type: cell-based, scenedesmus sp.; conditions: 1, 2 and 6 μM, up to 72 hours
# Description: as §1, §2, §3
# [12] = test system: luminescent bacteria (vibrio fischeri); assay: Ecotoxicity test, relative luminescence of luminescent bacteria; assay type: cell-based; conditions: for relative luminescence of the luminescent bacteria: supernatant of microcystis aeruginosa culture treated at 1 μM
# Description: In order to investigate the effect of the compound according to an example of the present disclosure, that is, a composition according to [Chemical Formula 1] on the ecosystem, biotoxicity evaluation indicator organisms such as luminescent bacteria (vibrio fischeri) and daphnia (Daphnia magna) was used to evaluate the ecotoxicity.
# First, in the case of the luminescent bacteria, an experiment was conducted according to the water pollution process test method, and as a sample for ecotoxicity evaluation, the compound specified in Example 1 was added to the blue-green algae, microcystis aeruginosa (10,488 cells/mL) at a concentration of 1 μM, and then, the supernatant was taken after 24 hours, 48 hours, and 72 hours and the luminescent bacteria were injected. Thereafter, the relative luminescence of the treated group compared to the control group was measured to confirm the luminescence reduction effect, and thus, the toxicity of each sample was evaluated.
# [13] = Biodegradability in on-site stream water (UHPLC-DAD); assay type: physicochemical; conditions: Jungnangcheon stream water, 6.5 μM input, 20° C.
# Description: An experiment was performed to evaluate the biodegradability in the water system of the compound of [Chemical Formula 1] according to the example of the present disclosure. First, on-site water from the Jungnangcheon stream in Seoul was collected and sprayed so that the concentration of the substance was 6.5 μM, and then acclimatized to a constant temperature condition of 20° C. The experimental volume was 350 mL, and samples were taken at intervals of 1-3 days, and 5 mL was taken per one time. This sample was filtered with a GF/F filter and stored frozen, and then melted at room temperature for analysis, filtered again with a 0.45 μm nylon filter, and then proceeded under the following analysis conditions. • Equipment: Agilent 1290 Infinity (UHPLC-DAD) • Column: Eclipse Puls-[…] (4.6 mm*100 mm*3.5 μm) • Column temperature: 40° C. • Mobile phase: Isocratic=>A: 0.1% phosphoric acid in D.W, B: ACN=70:30 • Analysis time: 7 min • Flow rate: 1.0 mL/min • Detector: DAD Detector (measurement waveform: 260 nm) • Injection volume: 1 μL
# [14] = Solubility in organic solvents; assay type: physicochemical
# Description: Therefore, diethyl ether (Et2O) is recommended for washing.
smiles,measurement,setting,value
"CCN(CC)CCNC1=CC(=O)c2ccccc2C1=O [Chemical Formula 1, 2-((2-(diethylamino)ethyl)amino)naphthalene-1,4-dione HCl]",algal effect (killed),[1],≥ 90%
same,algal effect (killed),[2],≥ 90%
same,algae effect,[3],≥ 80%
same,algal effect,[4],more than 90%
same,algal effect,[5],insignificant
same,algal effect,[6],insignificant
same,algal effect,[7],more than 90%
same,algal effect,[8],more than 90%
same,algal effect,[9],more than 80%
same,algal effect,[10],70%
same,algal effect,[11],hardly observed
same,relative luminance versus control group,[12]; sample added at 1 μM,did not differ from that of the control group
same,relative luminescence of the luminescent bacteria,[12]; after 24 hours,100%
same,relative luminescence of the luminescent bacteria,[12]; after 48 hours,100%
same,relative luminescence of the luminescent bacteria,[12]; after 72 hours,100%
same,concentration of the substance relative to the initial input concentration,[13]; 7th day,70%
same,concentration of the substance,[13]; until the first 2 days,maintained at the input concentration level
same,solubility,"[14]; 1,4-dioxane",slightly dissolved
same,solubility,[14]; dimethyl sulfoxide (DMSO),well dissolved
same,solubility,[14]; ethanol (EtOH),slightly dissolved
